Data on two compounds can be found in BigSolDB 2.1.

Regarding `CC(=O)O[C@H]1CC[C@@]2(C)C(=CC[C@@H]3[C@@H]2CC[C@]2(C)C(c4cccnc4)=CC[C@@H]32)C1`, the solubility (mole fraction) runs as follows: (in acetone, 296 K) 0.0128; (in acetone, 310 K) 0.0181; (in acetonitrile, 296 K) 0.0021; (in acetonitrile, 310 K) 0.0027; (in ethanol, 296 K) 0.0111; (in ethanol, 310 K) 0.0127. For the same compound, the solubility (mole fraction) reads like this: (in isopropanol, 296 K) 0.0133; (in isopropanol, 310 K) 0.0145; (in methanol, 296 K) 0.00544; (in methanol, 310 K) 0.00648; (in n-propanol, 296 K) 0.0242; (in n-propanol, 310 K) 0.0279.
In the case of `C[C@]12CC[C@H](O)CC1=CC[C@@H]1[C@@H]2CC[C@]2(C)C(c3cccnc3)=CC[C@@H]12`, the solubility (mole fraction) amounted to 0.00249 (in THF, 296 K); 0.00393 (in THF, 310 K); 4.44e-05 (in acetonitrile, 296 K); 6.46e-05 (in acetonitrile, 310 K); 0.00102 (in ethanol, 296 K); 0.00126 (in ethanol, 310 K). Also, the solubility (mole fraction) came out at 0.00168 (in isopropanol, 296 K); 0.0015 (in isopropanol, 310 K); 0.000523 (in methanol, 296 K); 0.000656 (in methanol, 310 K); 0.00178 (in n-propanol, 296 K); 0.00256 (in n-propanol, 310 K).

For orientation: solubility (mole fraction) means the moles of solute divided by all moles in the saturated solution.
